# In patent US20250205189A1, “DIETARY BUTYRATE FOR TREATING OR PREVENTING AN ALLERGIC DISORDER” (SOCIETE DES PRODUITS NESTLE S.A., priority 2018, published 2025):
# What was measured:
# female BALB/c mice = experiment: Cumulative clinical score after oral OVA challenge in mice with pre-existing milk (BLG) allergy; format: in vivo; conditions: 600 μg butyrate per mL infant formula ad libitum; 12 oral OVA challenges; compared to Allergic group 1; FIG. 3
# From the text: An allergy to milk was induced in female BALB/c mice aged eight weeks by sensitization via epicutaneous application of the milk protein β-lactoglobulin (BLG) (“Allergic group”). At this stage all three “Allergic groups” ([…], […] and Allergic group 3) were subjected to the same sensitization via epicutaneous application of the milk protein β-lactoglobulin (BLG) treatment. The non-allergic negative control group received phosphate buffered saline (PBS) only (“Control group”). Three patches were applied in total, each separated by a week without patch in between. Six days following the final skin patch, mice were orally challenged with BLG following a conventional procedure known to those skilled in the art. Serum was processed for ELISA and BLG-specific Immunoglobulin E (IgE) and BLG-specific Immunoglobulin G1 (IgG1) were determined (FIGS. 1 and 2 respectively).
# Following the induction of milk allergy, “Control group” and “Allergic group 1” received infant formula for nutritional management of cow's milk allergy (the extensively hydrolyzed infant formula available commercially under the Trademark Althéra® was used in this example) reconstituted in the drinking water for a three-week period. […]
# [1] = tested on: mast cell protease-1 (MCPT-1); experiment: Serum ELISA of mast cell protease-1 after oral OVA challenge; format: in vivo, mice; conditions: 600 μg butyrate per mL infant formula, FIG. 6
# GATA-3 = conditions: cited from earlier work
# [2] = tested on: OVA-specific IgE, OVA-specific IgG1; experiment: Serum ELISA of OVA-specific IgE and IgG1 after oral OVA challenge; format: in vivo, mice; conditions: 600 μg butyrate per mL infant formula, compared across the three Allergic groups
smiles,measurement,setting,value
CCCC(=O)[O-].[Na+] [sodium butyrate],Allergic symptoms (cumulative clinical score),female BALB/c mice,reduction of allergic symptoms
same,Mast cell protease-1 (MCPT-1),[1],reduction in mast cell protease-1
same,GATA-3 or FoxP3 expression,"GATA-3; 0.1 mM, CD4+ T cells under Th2 polarizing conditions (Furusawa 2013)",insufficient to influence GATA-3 or FoxP3 expression
same,Gata3 expression,"GATA-3; 1 mM in vitro, Th2 polarized CD4+ T cells (Kespohl 2017)",sufficient to ameliorate Gata3 expression
same,OVA-specific IgE level,[2]; FIG. 4,similar
same,OVA-specific IgG1 level,[2]; FIG. 5,similar
